# Patent US6599899B2, “Benzoxazinones as peroxisome proliferator activated receptor gamma modulators and method of treatment” (Ortho-McNeil Pharmaceutical, Inc., priority 2000, dated 2003)
# Test system: aP2 mRNA production
# Assay: aP2 assay for agonist (induction of aP2 mRNA production, bDNA assay)
# Assay type: cell-based
# Settings: preadipocytes
structure (smiles),measurement,value
"CCCCCCN1C(=O)C(CCOc2ccccc2CC(=O)O)Oc2ccccc21 (stereo not shown) [Compound 1, Benzeneacetic acid, 2-[2-(4-hexyl-3,4-dihydro-3-oxo-2H-1,4-benzoxazin-2-yl)ethoxy]-]",Agonist Intrinsic Activity,40.4 fold increase over vehicle
